Usually inhibition in vivo stands for the relative decrease from the control value, in per cent. A higher inhibition in vivo goes with a strong effect.

Results on 14 molecules are retold here after patent US5324725A, “7-fused 2-(piperazinoalkyl) indole derivatives, intermediates and compositions thereof” (Kali-Chemie Pharma GmbH, priority 1991, dated 1994).

Assay [1] relates to Passive cutaneous anaphylaxis (P.C.A.). In words: Inhibition of passive cutaneous anaphylaxis (P.C.A.). The format is in vivo, rat (Sprague-Dawley). As to conditions: Rattus norvegicus, 1 h; rats, 2 × 10^-5 mol/kg p.o., one hour before ovalbumin challenge. In outline: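 Sprague-Dawley rats (150-180 g) were sensitized intradermally with rat IgE-rich anti-ovalbumin serum and challenged 24 h later with i.v. ovalbumin 8.25 mg/kg plus Evans blue. Compound was given orally at 2×10^-5 mol/kg 1 h before challenge. Dye exudation was scored visually at 30 min as % inhibition versus vehicle controls.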

Assay [2] relates to Histamine-induced anaphylactoid reactions. Nature of the assay: Inhibition of anaphylactoid cutaneous reaction induced by histamine. The assay is classed as in vivo, rat (Sprague-Dawley). As to conditions: Rattus norvegicus, 1 h; rats, 2 × 10^-5 mol/kg p.o., one hour before challenge; histamine intradermal. The gist of the method: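 Animals received 50 μl intradermal histamine (0.8 mg/ml in saline) in the flank opposite the antiserum site, just before i.v. ovalbumin plus blue dye. Test substance at 2×10^-5 mol/kg was given orally 1 h before challenge in water with 1% DMF and 1% Tween 20. Blue-dye exudation was scored visually at 30 min, giving % inhibition versus solvent controls.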

The next assay deals with T1, histamine (H1) receptor (Cavia porcellus, UniProt P31389).
T1 construct: isolated smooth muscle of the guinea-pig ileum; from tissue; host or cells: isolated ileum segments of Dunkin Hartley guinea-pigs
Nature of the assay: Antihistamine (H1) effect: inhibition of histamine-induced contractions of isolated guinea-pig ileum in vitro. Particulars: histamine 5 × 10^-6 mol/l, test substance 10^-6 mol/l. The assay is classed as cell-based, guinea-pig (Dunkin Hartley). The protocol:
3. Investigation of the antihistamine (H1) effect based on histamine (H1) receptor antagonism in vitro.
To investigate the histamine (H1) receptor antagonism of the substances, the inhibitory effect thereof on histamine-induced contractions of the smooth musculature of isolated organ was determined in vitro. Isolated strips of organ from the ileum were used. In an organ bath of physiological saline solution, they react to addition of histamine by contracting. Addition of the compounds of the invention decreases this histamine-induced contraction of the smooth musculature of the ileum strips. The extent of decrease of the contraction is an indication of the antihistamine (H1) activity of the compounds. The investigation is carried out analogously to the method originally described by Magnus (Pflugers Arch. 102, 123 (1904)).
Experimental description of the determination of the inhibitory effect on the contraction induced by a 5×10^-6 molar histamine concentration on isolated smooth muscle of the guinea-pig ileum.
For the test, 1.5 cm long segments of the ileum from Dunkin Hartley guinea-pigs having a body weight of 300-500 g were employed. Each strip was placed in an organ bath of 10 ml of Krebs-Henseleit physiological saline solution and attached to a customary apparatus for isotonically measuring changes in length of the ileum strip (automated Celaster measuring apparatus) so that the tissue is under a tension of 1 g. The bath was kept at a pH of 7.4 and aerated with a mixture of 5% CO2 and 95% O2. After an equilibration phase, an isotonic contraction of the tissue was produced by adding histamine in a final concentration of 5×10^-6 mol/l and was washed out again after a contact time of 30 seconds. Only those tissues in which three reproducible contractions were obtained at 10 minute intervals were used in the subsequent test. The test substances were then added in a final concentration of 10^-6 mol/l, and after a contact time of 30 seconds histamine was again added up to a concentration of 5×10^-6 mol/l. The contractions which occurred were measured over the course of 30 seconds. The tissue was then washed several times over a period of 10 minutes. A contraction challenge was then induced again by addition of histamine. The contractions which occurred were again measured over 30 seconds. The difference between the amplitude of the contraction obtained by histamine addition alone and the amplitude of the contraction obtained in the presence of the test substance was determined and calculated as % inhibition.
The inhibitory effects on the contractions induced by histamine 30 seconds after administration of the test substance and on the contractions induced by addition of histamine 10 minutes afterward are given in the table.

[3] abbreviates: after 30 sec., read-out: in vitro (H1) receptor antagonism % inhibitory effect on histamine-induced contractions of the Ileum, after 30 sec.
[4] abbreviates: after 10 min. (after washing), read-out: in vitro (H1) receptor antagonism % inhibitory effect on histamine-induced contractions of the Ileum, after 10 min.

Like-named read-outs stand apart in the source and are kept apart here.

T1 sequence (P31389 whole entry): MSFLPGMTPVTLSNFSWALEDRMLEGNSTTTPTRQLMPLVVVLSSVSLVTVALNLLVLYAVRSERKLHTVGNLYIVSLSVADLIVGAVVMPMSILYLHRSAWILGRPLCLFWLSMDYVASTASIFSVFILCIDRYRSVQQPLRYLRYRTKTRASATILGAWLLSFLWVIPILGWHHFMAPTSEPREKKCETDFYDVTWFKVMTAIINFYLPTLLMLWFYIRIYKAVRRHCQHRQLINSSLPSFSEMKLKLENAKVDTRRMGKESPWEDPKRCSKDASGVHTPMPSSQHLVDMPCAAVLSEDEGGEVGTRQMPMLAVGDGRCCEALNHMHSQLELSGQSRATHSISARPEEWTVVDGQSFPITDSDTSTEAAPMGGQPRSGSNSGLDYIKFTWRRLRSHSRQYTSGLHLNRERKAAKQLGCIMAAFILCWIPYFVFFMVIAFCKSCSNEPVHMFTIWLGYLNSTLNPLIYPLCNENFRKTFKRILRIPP

As for `Cc1ccnc(N2CCN(CCc3c(C)n4c5c(ccc(C(O)C(C)C)c35)SCC4)CC2)c1` (centres unmarked) [Example 90], the inhibition in vivo at 20 µmol/kg in assay [1] is 81%; in assay [2], 77%. Besides, the inhibition at 1 µM at histamine (H1) receptor (setting [3]) worked out at 19%; on histamine (H1) receptor (setting [4]) it was 88%.
As for `Cc1ccnc(N2CCN(CCc3c(C)n4c5c(cc(C(=O)c6ccccc6)cc35)CCC4)CC2)c1` [Example 66], the inhibition in vivo at 20 µmol/kg in assay [1] turned out to be 80%; in assay [2], 70%. Moreover, the inhibition at 1 µM at histamine (H1) receptor (setting [3]) amounted to 10%; at histamine (H1) receptor (setting [4]), 71%.
For the molecule `CNc1cc2c3c(c1)c(CCN1CCN(c4cc(C)ccn4)CC1)c(C)n3CCC2` [Example 80], the “in vitro (H1) receptor antagonism % inhibitory effect on histamine-induced contractions of the Ileum, after 30 sec.” value on histamine (H1) receptor (after 30 sec.) was found to be 15%. At histamine (H1) receptor (after 10 min. (after washing)), the “in vitro (H1) receptor antagonism % inhibitory effect on histamine-induced contractions of the Ileum, after 10 min.” value is on record as 63%.
In the case of `COc1ccc(C2CCc3cccc4c(CCN5CCN(c6cc(C)ccn6)CC5)c(C)n2c34)cc1` (centres unmarked) [Example 59], the inhibition in vivo at 20 µmol/kg in assay [1] and in assay [2] was 95% in each case.
Turning to `Cc1ccnc(N2CCN(CCc3c(C)n4c5c(cccc35)CCC4c3ccc(O)cc3)CC2)c1` (centres unmarked) [Example 61], the inhibition in vivo at 20 µmol/kg in assay [1] and in assay [2] was 100% in each case.
For the molecule `Cc1ccnc(N2CCN(CCc3c(C)n4c5c(cc(N(C)C)cc35)CCC4)CC2)c1` [Example 81], the values for the inhibition in vivo at 20 µmol/kg in assay [1] and in assay [2] were 86% and 82%, respectively.
Turning to `CCCCCCCC1CCc2cccc3c(CCN4CCN(c5cc(C)ccn5)CC4)c(C)n1c23` (centres unmarked) [Example 4, 4-n-heptyl-5,6-dihydro-2-methyl-1-{2-[4-(4-methylpyridin-2-yl)piperazin-1-yl]ethyl}-4H-pyrrolo[3,2,1-ij]-quinoline], the inhibition in vivo at 20 µmol/kg in assay [1] and in assay [2] was 55% in each case.
On to `Cc1ccnc(N2CCN(CCc3c(-c4ccc(OCCCCO)cc4)n4c5c(cccc35)CCC4)CC2)c1` [Example 12, 2-[4-(4-Hydroxybutyloxy)-phenyl]-1-{2-[4-(4-methylpyridin-2-yl)piperazin-1-yl]ethyl}-5,6-dihydro-4H-pyrrolo[3,2,1-ij]quinoline], for which the inhibition in vivo at 20 µmol/kg in assay [1] and in assay [2] was 25% throughout.
With `Cc1ccnc(N2CCN(CCc3c(C)n4c5c(cc(Cc6ccccc6)cc35)CCC4)CC2)c1` [Example 77], the values for the inhibition in vivo at 20 µmol/kg in assay [1] and in assay [2] were 60% and 30%, respectively.
Turning to `Cc1ccnc(N2CCN(CCc3c(-c4ccc(F)cc4)n4c5c(cccc35)CCC4)CC2)c1` [Example 47], the figures for the inhibition in vivo at 20 µmol/kg in assay [1] and in assay [2] were 50% and 20%, respectively.
Consider `Cc1ccnc(N2CCN(CCc3c(C)n4c5c(cc(C(=O)C6CCCCC6)cc35)CCC4)CC2)c1` [Example 83], for which the inhibition at 1 µM is 12% on histamine (H1) receptor (setting [3]) and 52% at histamine (H1) receptor (setting [4]).
In the case of `Cc1c(CCN2CCN(c3ccc(Br)cn3)CC2)c2cccc3c2n1CCC3` [Example 43], the figures for the inhibition at 1 µM at histamine (H1) receptor (setting [3]) and at histamine (H1) receptor (setting [4]) were 11% and 23%, respectively.
On to `CCCCC1CCc2cccc3c(CCN4CCN(c5cc(C)ccn5)CC4)c(C)n1c23` (centres unmarked) [Example 73, 4-n-butyl-5,6-dihydro-2-methyl-1-{2-[4-(4-methylpyridin-2-yl)piperazin-1-yl]ethyl}-4H-pyrrolo[3,2,1-ij]quinoline], for which the inhibition in vivo at 20 µmol/kg in assay [1] stood at 100%; in assay [2], 95%.
Consider `COc1ccc(-c2c(CCN3CCN(c4cc(C)ccn4)CC3)c3cccc4c3n2CCC4)cc1` [Example 7, 2-(4-methoxy-phenyl)-1-{2-[4-(4-methylpyridin-2-yl)piperazin-1-yl]ethyl}-5,6-dihydro-4H-pyrrolo[3,2,1-ij]quinoline], for which the inhibition in vivo at 20 µmol/kg in assay [1] is 75%; in assay [2] it was 35%.
